Reference: patent US20240391931A1 (Bristol-Myers Squibb Company, priority 2021, published 2024)

Tests used:
EGFR = EGFR (Homo sapiens, UniProt P00533); test: EGFR signaling (pEGFR Tyr1068/total EGFR MSD) in A431 cells; format: cell-based; parameters: endogenous in cells; host or cells: A431, N87; conditions: for EC50: A431 cells, read-out: A431 pEGFR EC50; for Selectivity A431 EC50/BT474 EC50: ratio A431 pEGFR EC50 to BT474 pHER2 EC50; for Selectivity A431 EC50/HEKYVMA EC50: ratio A431 pEGFR EC50 to HEK YVMA pHER2 EC50
Chain of EGFR (P00533 25-1210): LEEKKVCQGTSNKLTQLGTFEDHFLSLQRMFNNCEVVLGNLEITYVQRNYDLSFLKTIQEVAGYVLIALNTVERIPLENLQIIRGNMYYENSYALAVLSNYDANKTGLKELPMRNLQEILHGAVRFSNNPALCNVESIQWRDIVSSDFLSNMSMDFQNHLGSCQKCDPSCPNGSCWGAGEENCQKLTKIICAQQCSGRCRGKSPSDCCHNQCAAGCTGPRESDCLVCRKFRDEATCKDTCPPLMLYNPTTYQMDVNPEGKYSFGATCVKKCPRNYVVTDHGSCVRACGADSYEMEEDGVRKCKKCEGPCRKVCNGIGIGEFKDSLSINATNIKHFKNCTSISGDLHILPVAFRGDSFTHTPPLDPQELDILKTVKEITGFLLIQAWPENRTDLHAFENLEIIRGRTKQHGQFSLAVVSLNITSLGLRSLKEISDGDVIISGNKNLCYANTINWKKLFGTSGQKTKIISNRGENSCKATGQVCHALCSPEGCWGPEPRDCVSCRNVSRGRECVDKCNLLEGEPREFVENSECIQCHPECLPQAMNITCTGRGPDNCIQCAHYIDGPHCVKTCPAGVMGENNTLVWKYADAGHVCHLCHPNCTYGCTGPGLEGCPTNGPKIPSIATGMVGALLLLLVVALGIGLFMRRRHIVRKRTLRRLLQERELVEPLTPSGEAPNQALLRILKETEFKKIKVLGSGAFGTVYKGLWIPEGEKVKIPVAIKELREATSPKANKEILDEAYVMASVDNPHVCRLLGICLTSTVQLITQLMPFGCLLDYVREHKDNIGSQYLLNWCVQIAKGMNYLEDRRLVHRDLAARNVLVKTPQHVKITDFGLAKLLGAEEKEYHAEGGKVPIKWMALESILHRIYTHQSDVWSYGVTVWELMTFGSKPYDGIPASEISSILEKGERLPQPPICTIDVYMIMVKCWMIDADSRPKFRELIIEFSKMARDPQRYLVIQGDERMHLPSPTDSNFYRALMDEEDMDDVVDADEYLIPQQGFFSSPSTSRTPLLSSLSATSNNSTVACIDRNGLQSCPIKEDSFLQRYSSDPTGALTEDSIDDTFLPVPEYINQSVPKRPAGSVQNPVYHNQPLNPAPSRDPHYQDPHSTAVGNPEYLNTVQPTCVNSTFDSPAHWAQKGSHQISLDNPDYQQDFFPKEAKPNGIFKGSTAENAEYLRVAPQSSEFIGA
Method in brief: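 EC50 was fitted with variable Hill slope from MSD pTyr1068/total EGFR ratios, expressed as % DMSO control. A431 cells were starved overnight, then exposed 1.5 h to eight concentrations from 10 to 0.005 μM in 1% FBS before a 10-min 100 ng/mL EGF pulse.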

HER2YVMA = HER2YVMA (Homo sapiens, UniProt P04626, INS775YVMA); test: Enzymatic assay HER2YVMA (method b); format: biochemical; parameters: purchased Viva biotech, Shanghai, China custom purification; conditions: [HER2YVMA]=5 nM, [ATP]=25 μM, [Peptide 22]=1 μM
Chain of HER2YVMA (P04626 with tags, fused parts or gaps INS775YVMA): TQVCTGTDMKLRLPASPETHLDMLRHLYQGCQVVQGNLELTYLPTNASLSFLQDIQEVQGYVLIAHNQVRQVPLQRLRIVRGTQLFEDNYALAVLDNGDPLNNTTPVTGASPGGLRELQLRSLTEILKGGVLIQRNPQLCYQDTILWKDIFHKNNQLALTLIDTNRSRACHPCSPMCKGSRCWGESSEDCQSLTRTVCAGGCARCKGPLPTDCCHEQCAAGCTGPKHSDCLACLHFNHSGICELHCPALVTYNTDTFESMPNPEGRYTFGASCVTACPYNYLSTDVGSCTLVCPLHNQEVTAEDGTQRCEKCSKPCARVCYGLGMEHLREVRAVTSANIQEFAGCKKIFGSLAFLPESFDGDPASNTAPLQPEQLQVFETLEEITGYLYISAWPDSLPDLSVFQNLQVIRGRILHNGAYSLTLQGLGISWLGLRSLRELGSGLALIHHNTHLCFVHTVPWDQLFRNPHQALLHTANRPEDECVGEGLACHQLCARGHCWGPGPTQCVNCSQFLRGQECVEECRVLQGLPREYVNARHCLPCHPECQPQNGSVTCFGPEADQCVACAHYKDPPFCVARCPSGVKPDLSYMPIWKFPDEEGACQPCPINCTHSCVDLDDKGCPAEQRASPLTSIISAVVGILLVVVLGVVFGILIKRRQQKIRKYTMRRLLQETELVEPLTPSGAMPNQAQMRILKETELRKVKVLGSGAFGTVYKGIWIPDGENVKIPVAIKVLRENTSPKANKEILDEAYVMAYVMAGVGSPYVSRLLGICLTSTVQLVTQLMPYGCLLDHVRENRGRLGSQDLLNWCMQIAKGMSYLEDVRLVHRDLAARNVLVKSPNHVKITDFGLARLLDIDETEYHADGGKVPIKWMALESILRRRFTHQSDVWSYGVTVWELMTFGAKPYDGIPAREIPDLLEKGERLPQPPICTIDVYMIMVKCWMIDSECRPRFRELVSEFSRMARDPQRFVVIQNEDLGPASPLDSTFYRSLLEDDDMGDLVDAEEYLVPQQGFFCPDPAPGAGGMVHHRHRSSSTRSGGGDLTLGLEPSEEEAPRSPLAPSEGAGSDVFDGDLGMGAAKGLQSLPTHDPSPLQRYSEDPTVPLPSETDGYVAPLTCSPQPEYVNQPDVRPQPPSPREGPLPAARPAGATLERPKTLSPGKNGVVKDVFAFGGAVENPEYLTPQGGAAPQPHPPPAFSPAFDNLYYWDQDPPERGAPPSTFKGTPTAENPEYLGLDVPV
Method in brief: (§1)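 Initial rates over 0–3600 s, read as substrate-to-product conversion by capillary electrophoresis, were converted to percent inhibition and fitted with a variable-slope curve to give IC50. Conditions: EGFR WT 2 nM with 1 mM ATP; HER2 YVMA 5 nM or HER2 WT 12.5 nM, each with 25 μM ATP. All used 1 μM Peptide 22 in pH 7.5 HEPES/Mn/Mg buffer.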

EGFR WT = biological target: T1, EGFR WT (Homo sapiens, UniProt P00533); test: Enzymatic assay EGFR WT (method c); format: biochemical; conditions: [EGFR WT]=2 nM, [ATP]=1 mM, [Peptide 22]=1 μM
T1 construct: purchased Thermo Fisher, Carlsbad, CA ERBB1 PR7295B
T1 sequence (P00533 25-1210): as the sequence (P00533 25-1210) above
Method in brief: as §1

| SMILES | EC50 (EGFR) [nM] | Selectivity A431 EC50/BT474 EC50 (EGFR) | Selectivity A431 EC50/HEKYVMA EC50 (EGFR) | IC50 (HER2YVMA) [nM] | IC50 (EGFR WT) [nM] |
| --- | --- | --- | --- | --- | --- |
| Cc1cn2ccc(Oc3ccc(Nc4ncnc5sc6c(c45)CCN(C(=O)/C=C/CN(C)C)C6)cc3C)cc2n1 [Compound 110, (E)-4-(dimethylamino)-1-(4-((3-methyl-4-((2-methylimidazo[1,2-a]pyridin-7-yl)oxy)phenyl)amino)-5,8-dihydropyrido[4′,3′:4,5]thieno[2,3-d]pyrimidin-7(6H)-yl)but-2-en-1-one] | 1000 to 10000 | B (B: ≥ 20 and < 100) | C (C: ≥ 10 and < 20) | < 100 | > 10000 |
| Cc1cc(Nc2ncnc3sc4c(c23)CN(C(=O)/C=C/CN(C)C)C4)ccc1Oc1ccc2ncnn2c1 [Compound 111, (E)-1-(4-((4-([1,2,4]Triazolo[1,5-a]pyridin-6-yloxy)-3-methylphenyl)amino)-5H-pyrrolo[3′,4′:4,5]thieno[2,3-d]pyrimidin-6(7H)-yl)-4-(dimethylamino)but-2-en-1-one] | 1000 to 10000 | A (A: ≥100) | B (B: ≥ 20 and < 100) | < 100 | > 10000 |
| Cc1ccc(Oc2ccc(Nc3ncnc4sc5c(c34)CCN(C(=O)/C=C/CN3CCC[C@H](n4cccn4)C3)C5)cc2C)cn1 [Compound 112] | 100 to 1000 | B (B: ≥ 20 and < 100) | C (C: ≥ 10 and < 20) | < 100 | > 10000 |
| Cc1ccc(Oc2ccc(Nc3ncnc4sc5c(c34)CCN(C(=O)/C=C/CN3CCCC(c4nccs4)C3)C5)cc2C)cn1 (stereo not shown) [Compound 113] | 100 to 1000 | B (B: ≥ 20 and < 100) | C (C: ≥ 10 and < 20) | < 100 | > 10000 |
| Cc1ccc(Oc2ccc(Nc3ncnc4sc5c(c34)CCN(C(=O)/C=C/CN3CCC(O)C(C)(C)C3)C5)cc2C)cn1 (stereo not shown) [Compound 114] | 100 to 1000 | B (B: ≥ 20 and < 100) | B (B: ≥ 20 and < 100) | < 100 | > 10000 |
| Cc1ccc(Oc2ccc(Nc3ncnc4sc5c(c34)CCN(C(=O)/C=C/CN3CCCC34CCC4)C5)cc2C)cn1 [Compound 115] | 100 to 1000 | C (C: ≥ 10 and < 20) | D (D: ≥ 5 and < 10) | < 100 | > 10000 |
| Cc1ccc(Oc2ccc(Nc3ncnc4sc5c(c34)CCN(C(=O)/C=C/CN3CC(C)OC(C)C3C)C5)cc2C)cn1 (stereo not shown) [Compound 117] | 100 to 1000 | B (B: ≥ 20 and < 100) | B (B: ≥ 20 and < 100) | < 100 | > 10000 |
| Cc1ccc(Oc2ccc(Nc3ncnc4sc5c(c34)CCN(C(=O)/C=C/CN3CC4CC4(CO)C3)C5)cc2C)cn1 (stereo not shown) [Compound 118] | 100 to 1000 | A (A: ≥100) | B (B: ≥ 20 and < 100) | < 100 | > 10000 |
| Cc1ccc(Oc2ccc(Nc3ncnc4sc5c(c34)CCN(C(=O)/C=C/CN3CCCCC3(C)CO)C5)cc2C)cn1 (stereo not shown) [Compound 119] | 100 to 1000 | B (B: ≥ 20 and < 100) | B (B: ≥ 20 and < 100) | < 100 | > 10000 |
| Cc1ccc(Oc2ccc(Nc3ncnc4sc5c(c34)CCN(C(=O)/C=C/CN3C[C@H]4C[C@@H]3CC4C#N)C5)cc2C)cn1 (stereo partly shown) [Compound 120] | 100 to 1000 | B (B: ≥ 20 and < 100) | B (B: ≥ 20 and < 100) | < 100 | > 10000 |
| Cc1ccc(Oc2ccc(Nc3ncnc4sc5c(c34)CCN(C(=O)/C=C/CN3CC(C)(C)OC(C)(C)C3)C5)cc2C)cn1 [Compound 121] | 1000 to 10000 | B (B: ≥ 20 and < 100) | C (C: ≥ 10 and < 20) | 100 to 1000 | > 10000 |
